The subject of one experiment is intracellular LPO. The experiment can be described thus: Intracellular LPO (C11-BODIPY 581/591, flow cytometry) in HT1080 cells. Particulars: 12 h. Type of experiment: cell-based, human. The method, then:
The level of LPO was determined by flow cytometry using the C11‐BODIPY^581/591 dye. In short, HT1080 cells were incubated in 6‐well plates at a density of 5 × 10^4 cells per well for 24 h. After that, the culture medium was substituted with a fresh medium containing GDAz‐3, ML162, or a mixture of GDAz‐3 and Fer‐1 at the specified concentrations. Following a 12‐h incubation period, HT1080 cells were stained with C11‐BODIPY^581/591 dye for 10 min. Finally, the cell samples were collected, washed twice with phosphate‐buffered saline (PBS), and then analyzed by flow cytometry.
(In general: Flow cytometry measures light scatter and fluorescence of single cells or particles in a stream.)

A further experiment deals with T1, GPX4 (Homo sapiens, UniProt P36969).
T1 sequence (P36969 1-170 isoform P36969-2): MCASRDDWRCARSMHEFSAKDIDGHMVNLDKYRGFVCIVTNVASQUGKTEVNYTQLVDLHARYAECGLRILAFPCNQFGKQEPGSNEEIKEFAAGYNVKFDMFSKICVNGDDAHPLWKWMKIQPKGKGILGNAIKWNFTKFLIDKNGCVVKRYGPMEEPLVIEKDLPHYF
The experiment can be described thus: GPX4 degradation by western blot in MDA-MB-231 cells. Type of experiment: cell-based. The arrangement: determine the changes in the endogenous levels of GPX4 by western blot assay; endogenous in cells. Particulars: 24 h. The method, then:
To further confirm this degradation efficacy, an in‐cell western (ICW) assay, a quantitative immunofluorescence cell‐based technique, was performed to quantify the relative expression level of GPX4 after treatment with GDAz‐3 for 24 h. […] Given the promising GPX4 degradation activity of GDAz‐3, we extended our evaluation to additional ferroptosis‐sensitive cell lines, including triple‐negative breast cancer cells (MDA‐MB‐231) and melanoma cells (mouse B16‐F10). […] Based on the observation that GDAz‐3 was particularly effective in HT1080 cells, we selected this cell line for further degradation mechanism and ferroptosis pharmacodynamics studies.
Cells were seeded at a density of 4 × 10^5 cells well^−1 in 6‐well plates and allowed to incubate overnight. Cells were incubated with the indicated treatments. Thereafter, the cells were collected and lysed with RIPA buffer containing serine protease and phosphatase inhibitors for 30 min on ice. Proteins were quantified by using a BCA protein assay kit (Beyotime). […] Ultimately, the membrane was washed five times, and the antibody‐protein complexes were visualized using an ECL luminescence reagent (Biosharp, Shanghai, China). The relative intensities of the bands were analyzed by ImageJ and normalized to a loading control.
(In general: In western blotting, separated proteins are transferred to a membrane and probed.)

Consider `COc1ccc(-c2nc(-c3cc(C(F)(F)F)cc(C(F)(F)F)c3)n(Cc3ccc(C(=O)NCCOCCOCCOCCn4cc(COc5ccc(N(C(=O)CCl)C(C(=O)NCCc6ccccc6)c6cccs6)cc5Cl)nn4)cc3)c2-c2ccc(OC)cc2)cc1` (centres unmarked) [GDAz-3, 4-((2-(3,5-bis(trifluoromethyl)phenyl)-4,5-bis(4-methoxyphenyl)-1H-imidazol-1-yl)methyl)-N-(2-(2-(2-(2-(4-((2-chloro-4-(2-chloro-N-(2-oxo-2-(phenethylamino)-1-(thiophen-2-yl)ethyl)acetamido)phenoxy)methyl)-1H-1,2,3-triazol-1-yl)ethoxy)ethoxy)ethoxy)ethyl)benzamide], for which, in the experiment with intracellular LPO, the “Fluorescence intensity of C11-BODIPY 581/591 (lipid peroxidation)” value is on record as “markedly enhanced”. At GPX4, the GPX4 degradation entry is “effectively induce the degradation of GPX4 to varying extents”.

Source of the values: paper PMC12948223, “HSP70 Interactome‐Mediated Proteolysis Targeting Chimera (HSP70‐PROTAC) for Ferroptosis‐Driven Cancer Treatment” (Advanced Science, 2025).
